Results reported in paper PMC7570665 (2020).

Legend:
[1] = test system: T10-7.t5 (XNA, aptamer, all-TNA (alpha-L-threose nucleic acid, 3'-2'); 7-deaza-7-phenyl-guanine in place of every guanine) CTTTTAAGAACCGGACGAACTAGAATATTATATTTT; experiment: competitive equilibrium filtration; conditions: 5 mM MgCl2, 300 mM NaCl; 20 mM Tris-HCl pH 7.6; displaces γ-32P-ATP; 4 °C in methods, 24 °C in legend; highest concentration not stated
[2] = test system: T10-7.t5 (XNA, aptamer, all-TNA (alpha-L-threose nucleic acid, 3'-2'); 7-deaza-7-phenyl-guanine in place of every guanine) CTTTTAAGAACCGGACGAACTAGAATATTATATTTT; experiment: equilibrium filtration, γ-32P-ATP, Hill fit; conditions: 5 mM MgCl2, 300 mM NaCl; 20 mM Tris-HCl pH 7.6; 4 °C in methods, 24 °C in legend; apparent

Row | SMILES | Kd [1] [mM] | KD [2] [µM]
1 | Nc1ccn([C@@H]2O[C@H](COP(=O)(O)OP(=O)(O)OP(=O)(O)O)[C@@H](O)[C@H]2O)c(=O)n1 | > 2 | –
2 | Nc1nc2c(ncn2[C@@H]2O[C@H](COP(=O)(O)OP(=O)(O)OP(=O)(O)O)[C@@H](O)[C@H]2O)c(=O)[nH]1 | > 2 | –
3 | Nc1ncnc2c1ncn2[C@@H]1O[C@H](COP(=O)(O)OP(=O)(O)OP(=O)(O)O)[C@@H](O)[C@H]1O | – | 22 ± 5
4 | O=c1ccn([C@@H]2O[C@H](COP(=O)(O)OP(=O)(O)OP(=O)(O)O)[C@@H](O)[C@H]2O)c(=O)[nH]1 | > 2 | –
